Results taken from patent US12319664B2, “Herbicidally active 3-phenylisoxazoline-5-carboxamides of cyclopentenylcarboxylic acid derivatives” (Bayer Aktiengesellschaft, priority 2018, dated 2025).

Tests used:
AVEFA = test: Post-emergence herbicidal action against AVEFA; assay type: in vivo, Avena fatua; settings: application rate 80 g/ha, rated visually after about 3 weeks
Experimental: (§1) [table] 2. Post-emergence herbicidal action against harmful plants and crop plant compatibility Seeds of monocotyledonous and dicotyledonous weeds and crop plants are placed in sandy loam in plastic or wood-fibre pots, covered with soil and cultivated in a greenhouse under controlled growth conditions. 2 to 3 weeks after sowing, the test plants are treated at the one-leaf stage. The compounds of the invention, formulated in the form of wettable powders (WP) or as emulsion concentrates (EC), are then sprayed onto the green parts of the plants as aqueous suspension or emulsion with addition of 0.5% additive at a water application rate of 600 l/ha (converted). After the test plants have been kept in the greenhouse under optimum growth conditions for about 3 weeks, the activity of the preparations is rated visually in comparison to untreated controls. For example, 100% activity=the plants have died, 0% activity=like control plants.

ALOMY = test: Post-emergence herbicidal action against ALOMY; assay type: in vivo, Alopecurus myosuroides; settings: application rate 80 g/ha, rated visually after about 3 weeks
Experimental: as §1

LOLRI = test: Post-emergence herbicidal action against LOLRI; assay type: in vivo, Lolium rigidum; settings: application rate 80 g/ha, rated visually after about 3 weeks
Experimental: as §1

STEME = test: Post-emergence herbicidal action against STEME; assay type: in vivo, Stellaria media; settings: application rate 80 g/ha, rated visually about 3 weeks after treatment
Experimental: as §1

PHBPU = test: Post-emergence herbicidal action against PHBPU; assay type: in vivo, Pharbitis purpurea; settings: application rate 80 g/ha, rated visually about 3 weeks after treatment
Experimental: as §1

AMARE = test: Post-emergence herbicidal action against AMARE; assay type: in vivo, Amaranthus retroflexus; settings: application rate 80 g/ha, rated visually about 3 weeks after treatment
Experimental: as §1

HORMU = test: Post-emergence herbicidal action against HORMU; assay type: in vivo, Hordeum murinum; settings: application rate 80 g/ha
Experimental: as §1

SETVI = test: Post-emergence herbicidal action against SETVI; assay type: in vivo, Setaria viridis; settings: application rate 80 g/ha, rated visually after about 3 weeks
Experimental: as §1

ECHCG = test: Post-emergence herbicidal action against ECHCG; assay type: in vivo, Echinochloa crus-galli; settings: application rate 80 g/ha, rated visually after about 3 weeks
Experimental: as §1

POLCO = test: Post-emergence herbicidal action against POLCO; assay type: in vivo, Polygonum convolvulus; settings: application rate 80 g/ha, rated visually about 3 weeks after treatment
Experimental: as §1

ABUTH = test: Post-emergence herbicidal action against ABUTH; assay type: in vivo, Abutilon theophrasti; settings: application rate 80 g/ha, rated visually about 3 weeks after treatment
Experimental: as §1

VERPE = test: Post-emergence herbicidal action against VERPE; assay type: in vivo, Veronica persica; settings: application rate 80 g/ha
Experimental: as §1

| Compound | Herbicidal action against [%] AVEFA (AVEFA) [%] | Herbicidal action against [%] ALOMY (ALOMY) [%] | Herbicidal action against [%] LOLRI (LOLRI) [%] | Herbicidal action against [%] STEME (STEME) [%] | Herbicidal action against [%] PHBPU (PHBPU) [%] | Herbicidal action against [%] AMARE (AMARE) [%] | Herbicidal action against [%] HORMU (HORMU) [%] | Herbicidal action against [%] SETVI (SETVI) [%] | Herbicidal action against [%] ECHCG (ECHCG) [%] | Herbicidal action against [%] POLCO (POLCO) [%] | Herbicidal action against [%] ABUTH (ABUTH) [%] | Herbicidal action against [%] VERPE (VERPE) [%] |
| --- | --- | --- | --- | --- | --- | --- | --- | --- | --- | --- | --- | --- |
| CCOC(=O)C1C=CC(NC(=O)C2(C)CC(c3cc(F)cc(C#N)c3)=NO2)C1 (mixture of isomers) [Example I-073] | 100 | 90 | 100 | 90 | 80 | 80 | 90 | 80 | 100 | 90 | 80 | 80 |
| COc1cc(OC)cc(C2=NOC(C(=O)NC3C=CC(C(=O)OCCCl)C3)(C(F)(F)F)C2)c1 (mixture of isomers) [Example I-044] | 80 | – | – | – | 80 | 80 | 100 | – | 90 | – | 90 | – |
| CC(C)(C)OC(=O)[C@@H]1C=C[C@H](NC(=O)C2(C)CC(c3cccc(C#N)c3)=NO2)C1 (stereo partly shown) [Example I-095] | – | 90 | – | – | 90 | – | – | – | – | 90 | – | 80 |
| O=C(OCC(F)(F)F)C1C=CC(NC(=O)C2(C(F)(F)F)CC(c3cccc(Cl)c3)=NO2)C1 (mixture of isomers) [Example I-051] | 90 | 100 | 90 | 90 | 80 | – | 90 | – | 80 | – | 80 | 80 |
| O=C(OCC(F)(F)F)[C@@H]1C=C[C@H](NC(=O)C2(C(F)(F)F)CC(c3ccccc3)=NO2)C1 (stereo partly shown) [Example I-030] | 100 | 90 | 100 | – | 80 | 90 | 90 | 90 | 80 | 90 | – | 80 |
| C=CC1(C(=O)NC2C=CC(C(=O)NS(=O)(=O)CC(=O)OC)C2)CC(c2cc(F)cc(F)c2)=NO1 (mixture of isomers) [II-18] | 100 | 100 | 80 | 80 | 80 | 80 | 90 | 90 | 80 | – | – | 80 |
| C=CC1(C(=O)N[C@H]2C=C[C@H](C(=O)NC(C)(C)C#N)C2)CC(c2cc(F)cc(F)c2)=NO1 (stereo partly shown) [II-19] | – | – | – | – | 90 | – | – | – | – | – | – | – |
| CC1(C(=O)N[C@H]2C=C[C@@H](C(=O)OCC(F)(F)F)C2)CC(c2cc(F)cc(F)c2)=NO1 (stereo partly shown) [Example I-010] | 90 | 90 | 90 | 80 | 90 | 90 | 90 | 90 | 90 | 90 | 80 | 90 |
| CC(C)(C)OC(=O)[C@@H]1C=C[C@H](NC(=O)C2(C)CC(c3cc(F)cc(F)c3)=NO2)C1 (stereo partly shown) [Example I-007] | 90 | 90 | 90 | 90 | 90 | – | 90 | 90 | 90 | 80 | 80 | 90 |
| C=CC1(C(=O)NC2C=CC(C(=O)NC(C(=O)OC)C(C)C)C2)CC(c2cc(F)cc(F)c2)=NO1 (single isomer, unassigned) [II-26] | 90 | 100 | 100 | 90 | 80 | 90 | 100 | 80 | 80 | 80 | 80 | 80 |
| CC1(C(=O)NC2C=CC(C(=O)NC(C)(C)C(F)(F)F)C2)CC(c2cc(F)cc(F)c2)=NO1 (mixture of isomers) [II-08] | – | 80 | – | 90 | 90 | – | – | – | – | – | – | 80 |
| COC(=O)[C@@H]1C=C[C@H](NC(=O)C2(C(F)(F)F)CC(c3ccccc3)=NO2)C1 (stereo partly shown) [Example I-026] | 100 | 100 | 90 | 80 | 80 | 90 | 90 | 90 | 80 | 80 | – | 80 |
| Cc1cc(C2=NOC(C(=O)NC3C=CC(C(=O)OCCCl)C3)(C(F)(F)F)C2)cc(C(F)(F)F)c1 (mixture of isomers) [Example I-049] | 90 | 90 | 90 | – | 90 | 90 | 90 | – | – | – | – | 80 |
| C=C[C@]1(C(=O)N[C@H]2C=C[C@H](C(=O)OC)C2)CC(c2cc(F)cc(F)c2)=NO1 [Example I-054] | 100 | 90 | 100 | 80 | 80 | 80 | 90 | 80 | 90 | 80 | – | 90 |
| O=C(OCCCl)C1C=CC(NC(=O)C2(C(F)(F)F)CC(c3cccc(Cl)c3)=NO2)C1 (mixture of isomers) [Example I-045] | 90 | 100 | 80 | 80 | 80 | – | 90 | 80 | 80 | – | 80 | – |
| O=C(C1C=CC(NC(=O)C2(C(F)(F)F)CC(c3cc(F)cc(F)c3)=NO2)C1)N1CCCO1 (mixture of isomers) [II-32] | 90 | 90 | 90 | 90 | – | 80 | 90 | 80 | 90 | 90 | 80 | 80 |
| C=CC1(C(=O)NC2C=CC(C(=O)NC(C)(C)C(F)(F)F)C2)CC(c2cc(F)cc(F)c2)=NO1 (single isomer, unassigned) [II-24] | – | – | – | – | 80 | – | – | – | – | – | – | 80 |
| C=CC1(C(=O)NC2CC=C(C(=O)NS(N)(=O)=O)C2)CC(c2cc(F)cc(F)c2)=NO1 (mixture of isomers) [IV-10] | 90 | – | 90 | – | 90 | 80 | 90 | – | 90 | – | – | – |
